{
  "source": "patent US20060189535A1",
  "about": "“Combination treatment using exendins and thiazolidinediones” (priority 2002, published 2006)",
  "key": {"[1]": {"test_system": "dogs", "details": "injected into dogs; cited from earlier work"}, "[2]": {"test_system": "male ZDF rat", "assay": "Four weeks combination treatment of overtly diabetic male ZDF rats; HbA1c and 24-hour glucose profiles", "format": "in vivo", "details": "thiazolidinedione insulin sensitizer x mg/kg oral once daily + Exendin-4(1-39) xx μg/kg s.c. twice daily", "procedure": "Synergistic effect of combining thiazolidinedione insulin sensitizer and exendin-4(1-39) on glucose and HbA1c, (glycosylated hemoglobin) in the male ZDF rat.\nMale ZDF rats were used in the study. Before treatment start, measurements of glucose and HbA1c were performed. All animals were overtly diabetic at the beginning of the study. Animals were allocated into the following 4 treatment groups: • Group 1: Vehicle-1+Vehicle-2 • Group 2: thiazolidinedione insulin sensitizer, x mg/kg+Vehicle-2 (n=10) • Group 3: Vehicle-1+exendin-4(1-39), xx μg/kg • Group 4: thiazolidinedione insulin sensitizer, x mg/kg+exendin-4(1-39), xx μtg/kg\nThiazolidinedione insulin sensitizer and Vehicle-1 were administered by oral gavage once daily at approx. 07:30. Exendin-4(1-39) and Vehicle-2 were administered subcutaneously twice daily at approx. 07:30 and 14:30.\nAfter four weeks treatment, HbA1c was measured and 24-hour glucose profiles were assessed.\nThe findings of group 1, 2, 3 and 4 are listed. Delta HbA1c values referring to the numerical difference between the measurement after treatment and the measurement before treatment are calculated. Glucose24 hAUc refers to the total area under the glucose concentration curve during the 24-hour period. A two-way analysis of variance are performed for each parameter and the significance of the interaction term evaluated."}},
  "data": [
    {"substance": "Exendin-4(1-39)", "values": [
      {"measurement": "insulin release and blood glucose level", "setting": "[1]", "result": "stimulate insulin release and ensuing lowering of the blood glucose level"},
      {"measurement": "effect on 24-hour glucose profiles (Glucose 24h AUC, two-way ANOVA interaction term)", "setting": "[2]", "result": "synergistic (greater than additive) effects"},
      {"measurement": "effect on HbA1c (delta HbA1c, two-way ANOVA interaction term)", "setting": "[2]", "result": "synergistic (greater than additive) effects"}
    ]}
  ]
}
